# Data from US20090156609A1, “TREATMENT OF POST-TRAUMATIC STRESS DISORDER WITH TETRAHYDROINDOLONE ARYLPIPERZAINE COMPOUNDS” (priority 2007, published 2009).
# Where two headings read alike, the source gives them in different places.
# What was measured:
# C-57 mice = experiment: Conditioned avoidance response (CAR) model; type: in vivo; details: models unwanted side effects
# From the text: The Condition Avoidance Responding (CAR, active avoidance) model is a measure of cognitive and attention impairment. It evaluates the disruption of avoidance (increased latency) without disruption of escape (extrapyramidal motor function).
# The training of C-57 mice consists of 20 trials with variable inter-trial intervals (trained to 80% Avoidance Criteria). After a one-minute acclimation period, the house light and an acoustic 90 decibel tone (conditioned stimuli) are presented. A response (crossing to dark compartment) within 5 seconds ends the trial and trial is recorded as avoidance response (CAR). […] To avoid shock, animals learn to move from the lighted side of the − chamber to the dark side when the cue is presented (avoidance) or moved when the shock is administered (escape). Compounds that disrupt cognition in the CAR model can be excluded from candidate consideration.
# (§1) The present compounds were tested in the conditioned avoidance response (CAR) model and in the Spontaneous Activity model described above.
# mice = experiment: Spontaneous Activity model (locomotor activity); type: in vivo; details: models unwanted side effects
# From the text: Ambulatory and non-ambulatory activity can be used to test spontaneous and drug-induced motor activity. The test can be used to profile the potential for a drug to induce hyperactivity or sedation.
# In this model, Kinder Scientific photobeam activity monitors are used to record the ambulatory and non-ambulatory motor activity. The monitors track the photobeam breaks made by the animal that are used to calculate the number of ambulatory and fine (non-ambulatory) motor movements. A drug-induced increase in activity can indicate the potential for an adverse event such as hyperactivity. A drug-induced decrease in response can indicate the potential for an adverse event such as sedation. Doses at which no significant change in activity are recorded, and more preferably at which no change in activity are recorded, can be selected for further evaluation.
# as §1
# Male C57 mice = experiment: PCP-induced disruption of prepulse inhibition (PPI) of the startle response; type: in vivo; details: for minimal effective dose: Mus musculus, 20 minutes prior to PCP 5 mg/kg IP, read-out: Effective Dose, Prepulse Inhibition Testing; for minimum effective dose, Prepulse Inhibition (PPI): reversal of PCP-induced disruption, route not given
# From the text: The phencyclidine (PCP)-induced disruption of pre-pulse inhibition (PPI) has been used to predict efficacy in cognitive impairment and other disorders. In this test, a weaker auditory prestimulus (prepulse) inhibits the reaction of an test organism to a subsequent strong startle stimulus (pulse). Normal PPI functioning in mammals is critical in filtering out irrelevant sensory information, an inhibitory process that is affected in patients with PTSD. A reduction of the cognitive/attention impairment produced in the PPI model can be used as an efficacy measure for compound candidate selection.
# For testing of PPI, male C57 mice can be assigned to five dose groups of eight animals per group, and vehicle or test compound can then be administered orally (PO) or subcutaneously (SC) 20 minutes prior to intraperitoneal (IP) administration of vehicle or PCP (5 mg/kg). Ten minutes following PCP administration, the mice are placed into Hamilton-Kinder startle chambers and evaluation of pre-pulse inhibition procedure is performed. Following a five-minute acclimatization period with background white noise (65 decibels), mice were exposed to five different trial types. Trials were presented […] in a quasi-random order, with randomized 5 to 25 second inter-trial intervals. Trials were: stimulus only trial (120 decibel white noise, 50 ms stimulus); two different prepulse+pulse trials in which a 20 ms 5 decibel, or 10 decibel stimuli above a 65 decibel background preceded the 120 decibel pulse by 120 ms; a 10 decibel prepulse without a 120 decibel pulse; and a no stimulus trial, in which only the background noise was presented.
# Compounds which are observed to reduce and/or reverse PCP-induced impairment can be selected as candidates for further evaluation. Such reduction is also indicative of memory enhancement, which is also a positive indicator for further development.
# Male C57 mice were assigned to five dose groups of eight animals per group, and vehicle or a test compound was administered orally or subcutaneously 20 minutes prior to intraperitoneal administration of vehicle or PCP (5 mg/kg). Ten minutes following PCP administration, the mice were placed into Kinder Scientific startle chambers (Kinder Scientific, Poway, Calif.) and pre-pulse inhibition was evaluated. Following a five-minute acclimatization period with background white noise (65 dB), mice were exposed to five different trial types. Trials were presented in a quasi-random order, with randomized 5 to 25 second inter-trial intervals. The five different trials (presented 10 times each were): stimulus only trial (120 dB white noise, 50 ms stimulus); two different prepulse+pulse trials in which a 20 ms 5 dB or 10 dB stimulus above a 65 dB background preceded the 120 dB pulse by 120 ms; a 10 dB prepulse without a 120 dB pulse; and a no stimulus trial, in which only the background noise was presented.
# patients = details: placebo 37 percent, cited from earlier work
SMILES,"minimum effective dose, Conditioned Avoidance Response (C-57 mice)","minimum effective dose, Locomotor Activity (mice)","minimal effective dose (Male C57 mice; sc, subcutaneous)",minimal effective dose (Male C57 mice; oral),"minimum effective dose, Prepulse Inhibition (PPI) (Male C57 mice)",patients who responded positively (patients; 20 mg paroxetine),patients who responded positively (patients; 40 mg paroxetine)
"O=C1CCCc2c1ccn2CCCCN1CCN(c2cccc(C(F)(F)F)c2)CC1 [Compound D, 1-{4-[4-(3-Trifluoromethylphenyl)piperazin-1-yl]butyl}-1,5,6,7-tetrahydroindol-4-one]",3 mg/kg,3 mg/kg,0.3 mg/kg,1 mg/kg,0.3 mg/kg,–,–
"O=C1CCCc2c1ccn2CCCCN1CCN(c2ccc(Cl)cc2Cl)CC1 [Compound J, 1-{4-[4-(2,4-Dichlorophenyl)piperazin-1-yl]butyl}-1,5,6,7-tetrahydroindol-4-one]",–,–,10 mg/kg,–,–,–,–
"O=C1CCCc2c1ccn2CCCN1CCN(c2cccc(C(F)(F)F)c2)CC1 [Compound G, 1-{3-[4-(3-Trifluoromethylphenyl)piperazin-1-yl]propyl}-1,5,6,7-tetrahydroindol-4-one]",>10 mg/kg,>10 mg/kg,–,–,3 mg/kg,–,–
"O=C1CCCc2c1ccn2CCCCN1CCN(c2ccc(Cl)c(Cl)c2)CC1 [Compound H, 1-{4-[4-(3,4-dichlorophenyl)piperazin-1-yl]butyl}-1,5,6,7-tetrahydroindol-4-one]",–,–,1 mg/kg,6 mg/kg,–,–,–
"O=C1CCCc2c1ccn2CCN1CCN(c2cccc(C(F)(F)F)c2)CC1 [Compound E, 1-{2-[4-(3-Trifluoromethylphenyl)piperazin-1-yl]ethyl}-1,5,6,7-tetrahydroindol-4-one]",>10 mg/kg,>10 mg/kg,–,–,3 mg/kg,–,–
"O=C1CCCc2c1ccn2CCCCN1CCN(c2ccc(Br)cc2)CC1 [Compound C, 1-{4-[4-(4-Bromophenyl)piperazin-1-yl]butyl}-1,5,6,7-tetrahydroindol-4-one]",>10 mg/kg,>10 mg/kg,3 mg/kg,–,3 mg/kg,–,–
"O=C1CCCc2c1ccn2CCCCN1CCN(c2ccc(F)cc2)CC1 [Compound B, 1-{4-[4-(4-Fluorophenyl)piperazin-1-yl]butyl}-1,5,6,7-tetrahydroindol-4-one]",>3 mg/kg,3 mg/kg,1 mg/kg,–,1 mg/kg,–,–
"O=C1CCCc2c1ccn2CCCN1CCN(c2ccc(Cl)c(Cl)c2)CC1 [Compound K, 1-{3-[4-(3,4-Dichlorophenyl)piperazin-1-yl]propyl}-1,5,6,7-tetrahydroindol-4-one]",–,–,10 mg/kg,–,–,–,–
"O=C1CCCc2c1ccn2CCCN1CCN(c2cccc(Cl)c2)CC1 [Compound F, 1-{3-[4-(3-Chlorophenyl)piperazin-1-yl]propyl}-1,5,6,7-tetrahydroindol-4-one]",>10 mg/kg,>3 mg/kg,–,–,3 mg/kg,–,–
"Fc1ccc([C@@H]2CCNC[C@H]2COc2ccc3c(c2)OCO3)cc1 [paroxetine, Paroxetine]",–,–,–,–,–,62%,54%
"O=C1CCCc2c1ccn2CCCCN1CCN(c2ccc(F)c(Cl)c2)CC1 [Compound I, 1-{4-[4-(3-Chloro-4-fluorophenyl)piperazin-1-yl]butyl}-1,5,6,7-tetrahydroindol-4-one]",–,–,1 mg/kg,–,–,–,–
